Reference: the supplement of paper PMC4862054

How the values were obtained:
Settings in all cases: incubation time: 72 h
BT-474 [1] = test: normalised viability (% of control), CellTiter-Blue; higher = more viable cells (about 100 = DMSO control)
Summary of the method: (§1)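 Compound dissolved in 5 µl medium was pre-loaded into 384-well plates, and breast cancer cell lines in 20 µl suspension were seeded on top and incubated 72 h. After adding 2.5 µl CellTiter-Blue reagent for 2 h at 37 °C, fluorescence was read at 560/590 nm. Plates were normalised to vehicle (100) and a positive kill control (0), with Z'-factor quality control. Each value is normalised viability at a single listed concentration from the series.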

CAL-51 [2] = test: as above
Summary of the method: as §1

CAL-85-1 [3] = test: as above
Summary of the method: as §1

HCC1143 = test: as above
Summary of the method: as §1

HCC1599 [4] = test: as above
Summary of the method: as §1

HCC1937 [5] = test: as above
Summary of the method: as §1

HDQ-P1 [6] = test: as above
Summary of the method: as §1

MDA-MB-436 [7] = test: as above
Summary of the method: as §1

SK-BR-3 [8] = test: as above
Summary of the method: as §1

BT-474 [9] = test: drug sensitivity score (DSS), CellTiter-Glo (DSS (AUC-based score)); higher = stronger drug effect (viability inhibition or cytotoxicity); extreme values may be limits of the assay
Summary of the method: (§2)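 Breast cancer cells were seeded into 384-well plates containing compound at 5 concentrations in 10-fold steps over a compound-specific 10,000-fold range and incubated 72 h. After CellTox Green and CellTiter-Glo readings, each plate was normalised to 0.1 % DMSO and a positive kill control. The drug sensitivity score rests on the area under the fitted dose-response curve.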

BT-549 = test: as above
Summary of the method: as §2

CAL-120 = test: as above
Summary of the method: as §2

CAL-148 = test: as above
Summary of the method: as §2

CAL-51 [10] = test: as above
Summary of the method: as §2

CAL-85-1 [11] = test: as above
Summary of the method: as §2

DU-4475 = test: as above
Summary of the method: as §2

HCC1599 [12] = test: as above
Summary of the method: as §2

HCC1937 [13] = test: as above
Summary of the method: as §2

HDQ-P1 [14] = test: as above
Summary of the method: as §2

Hs578T = test: as above
Summary of the method: as §2

MDA-MB-231 = test: as above
Summary of the method: as §2

MDA-MB-436 [15] = test: as above
Summary of the method: as §2

MDA-MB-453 = test: as above
Summary of the method: as §2

MFM-223 = test: as above
Summary of the method: as §2

SK-BR-3 [16] = test: as above
Summary of the method: as §2

CNC(=O)c1ccccc1Sc1ccc2c(/C=C/c3ccccn3)n[nH]c2c1 [Axitinib]
normalised viability [%]
Settings	BT-474 [1]	CAL-51 [2]	CAL-85-1 [3]	HCC1143	HCC1599 [4]	HCC1937 [5]	HDQ-P1 [6]	MDA-MB-436 [7]	SK-BR-3 [8]
3 nM	–	107	93	–	–	–	101	–	–
10 nM	112	–	–	89.9	105	41.1	–	103	91
30 nM	–	102	84	–	–	–	106	–	–
100 nM	–	98.2	104	–	–	–	92.1	–	–
1000 nM	105	–	–	96.2	84.8	81.8	–	21.7	88.9
10000 nM	76.4	–	–	57.2	62	42.6	–	46	63.8

Settings	drug sensitivity score
BT-474 [9]	0
BT-549	1.06
CAL-51 [10]	9.31
CAL-85-1 [11]	0
CAL-120	1.6
CAL-148	0
DU-4475	0
HCC1599 [12]	2.21
HCC1937 [13]	0
HDQ-P1 [14]	1.23
Hs578T	0
MDA-MB-231	0
MDA-MB-436 [15]	1.91
MDA-MB-453	0
MFM-223	8.4
SK-BR-3 [16]	0

COc1ccc(S(=O)(=O)Nc2cccnc2Nc2ccc(O)cc2)cc1 [ABT-751]
normalised viability [%]
Settings	BT-474 [1]	CAL-51 [2]	CAL-85-1 [3]	HCC1143	HCC1599 [4]	HCC1937 [5]	HDQ-P1 [6]	MDA-MB-436 [7]	SK-BR-3 [8]
3 nM	–	114	94.1	–	–	–	91.2	–	–
10 nM	112	–	–	83.8	112	86.8	–	86	93.3
30 nM	–	107	86.2	–	–	–	102	–	–
100 nM	–	107	88.9	–	–	–	107	–	–
1000 nM	60.7	–	–	56.1	85.6	24.7	–	48.3	16.9
10000 nM	54	–	–	29.1	40.4	14	–	21.4	15.6

Settings	drug sensitivity score
BT-474 [9]	6.74
BT-549	9.41
CAL-51 [10]	2.26
CAL-85-1 [11]	12.2
CAL-120	7.83
CAL-148	3.29
DU-4475	5.29
HCC1599 [12]	11.2
HCC1937 [13]	2.93
HDQ-P1 [14]	5.44
Hs578T	10.9
MDA-MB-231	7.19
MDA-MB-436 [15]	11.4
MDA-MB-453	10.5
MFM-223	7.28
SK-BR-3 [16]	13.1

Cc1cc(Nc2nc(N[C@@H](C)c3ncc(F)cn3)ncc2Cl)[nH]n1 [AZD1480]
normalised viability [%]
Settings	BT-474 [1]	CAL-51 [2]	CAL-85-1 [3]	HCC1143	HCC1599 [4]	HCC1937 [5]	HDQ-P1 [6]	MDA-MB-436 [7]	SK-BR-3 [8]
0.3 nM	–	115	102	–	–	–	106	–	–
1 nM	137	–	–	96	96	112	–	109	108
3 nM	–	114	91.4	–	–	–	108	–	–
10 nM	–	110	96.4	–	–	–	107	–	–
100 nM	108	–	–	102	96.6	83.9	–	96.4	126
1000 nM	112	–	–	71.8	74.6	83.4	–	125	102

Settings	drug sensitivity score
BT-474 [9]	0
BT-549	0
CAL-51 [10]	0
CAL-85-1 [11]	0
CAL-120	0
CAL-148	0
DU-4475	0
HCC1599 [12]	0
HCC1937 [13]	0
HDQ-P1 [14]	0
Hs578T	0
MDA-MB-231	0
MDA-MB-436 [15]	0
MDA-MB-453	0
MFM-223	5.17
SK-BR-3 [16]	0
